Consider one compound from patent publication US9389235B2, “Methods of using biomarkers for predicting the outcome of an immunotherapy against cancer” (priority 2010, dated 2016).

The experiment relates to metastatic RCC patients. Format: in vivo, human. The following applies: for HR, overall survival, +CY vs −CY arm / HR (95% CI), overall survival, +CY vs −CY arm: IMA901-treated patients. The method, then: The IMA901-202 (phase II) study used univariate and multivariate analyses to identify parameters which alone or in combination serve as predictive biomarkers for the success in terms of immune response induction and prolongation of overall survival of IMA901 treatment of metastatic RCC patients.
To achieve this, around 450 parameters (patient- or tumor-related parameters as well as analytes measured in serum or urine and cellular parameters) were analyzed using pre-treatment samples of the IMA901-202 (phase II) study population. For multivariate analyses, which selected a set of several parameters, those parameters that required preparation of peripheral blood mononuclear cells (PBMCs) were not included in order to limit measurement costs in future trials. Parameters were analyzed for their association with overall survival and T-cell responses.
Thereby, the selection of purely prognostic markers, which by definition would show association with overall survival in both arms, was avoided.
All samples were collected before any therapeutic study intervention, either three days before vaccination and immediately before administration of cyclophosphamide in the +CY arm, or immediately before vaccination. Serum samples were taken using a serum/gel-[…] (Becton Dickinson, 5 ml), inverted and incubated for a minimum of 30 minutes. Tubes were centrifuged for 15 minutes at least 1200×g, and serum (approximately 2 ml) was transferred into a NUNC cryotube (3.6 ml). Cryotubes were stored immediately at <−20° C. until measurement. […] Urine was collected shortly before vaccination. For dipstick examination, only fresh urine was used. Citrated plasma for analysis of coagulation was collected approximately two weeks before vaccination. Samples were taken using a citrate-[…] and centrifuged within 30 minutes at least 1200×g at ambient temperature. Supernatant plasma was transferred into microtubes.
Biomarker measurement methods included ELISA, multiplex immunoassays, epigenetic assays, mass spectrometry, FACS analyses, routine clinical methods of haematology, clinical chemistry and urine analysis, and other methods.
The interaction of parameters with CY-pre-treatment was assessed using the Cox proportional hazards model. Candidates showing an interaction p value of <0.05 at any cutoff value that was not at the extreme ends of the distribution (i.e. selecting or de-selecting >˜5% of patients) were considered as interesting.
Moreover, to exclude parameters with significant interaction due to inverse association of cyclophosphamide pre-treatment with overall survival in the unfavorable biomarker group, an additional criterion was significant association (p<0.05) with overall survival in the positive biomarker group. A significant (p<0.05) association with overall survival in the +CY group, but not in the −CY group was considered to be an additional hint for the predictive instead of prognostic quality of a parameter.
Multivariate biomarkers were determined according to a Cox proportional hazard model, whose properties and extensions are described in the following.

Like-named read-outs stand apart in the source and are kept apart here.

For the compound `O=P1(N(CCCl)CCCl)NCCCO1` (stereo not shown) [cyclophosphamide], the “patients still alive at the end of the study” value (CCL17/TARC-positive cyclophosphamide-pre-treated patients, IMA901 treatment (FIG. 1D)) was 75%. Further, the “HR, interaction of biomarker with cyclophosphamide pre-treatment (overall survival)” value reads like this: (biomarker ApoA1, cutoff 0.264 mg/ml) 0.43; (biomarker CCL17/TARC, cutoff 161.99 pg/ml) 0.26; (biomarker CXCL13/BCA-1, cutoff 64.21 pg/ml) 0.3271; (biomarker monocytes, cutoff 7.7%) 0.22. The “HR, overall survival, +CY vs −CY arm” value reads like this: (biomarker-negative group, ApoA1, cutoff 0.264 mg/ml) 0.84; (biomarker-negative group, CCL17/TARC, cutoff 161.99 pg/ml) 0.85; (biomarker-negative group, CXCL13/BCA-1, cutoff 64.21 pg/ml) 1.07; (biomarker-negative group, monocytes, cutoff 7.7%) 1.31; (biomarker-positive group, ApoA1, cutoff 0.264 mg/ml) 0.36; (biomarker-positive group, CCL17/TARC, cutoff 161.99 pg/ml) 0.22. In addition, the “HR, overall survival, +CY vs −CY arm” value is listed as 0.35 (biomarker-positive group, CXCL13/BCA-1, cutoff 64.21 pg/ml) and 0.29 (biomarker-positive group, monocytes, cutoff 7.7%). Further, the “HR (95% CI), overall survival, +CY vs −CY arm” value is, setting by setting: (biomarker-negative group, multivariate biomarker, cutoff 0.019076043 points) 2.5 (0.95-6.58);; (biomarker-positive group, multivariate biomarker, cutoff 0.019076043 points) 0.08 (0.02-0.38);. Further, the “HR (95% CI), interaction of multivariate biomarker with cyclophosphamide pre-treatment (overall survival)” value (multivariate biomarker, cutoff 0.019076043 points) is on record as 0.032 (0.0055-0.1863);.
